According to US10577363B2, “Substituted piperidine compounds” (EPIZYME, INC., priority 2014, dated 2020):

What was measured:
[1] = target: T1, SMYD3 (Homo sapiens (Human), UniProt Q9H7B4); test: SMYD3 cell assay (Trimethyl-MEKK2 In-Cell Western in 293T/17 cells); type: cell-based; details: read-out: SMYD3 Cell IC50*
Procedure, shortened: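 In-Cell Western readout: methanol-fixed cells stained for trimethyl-MEKK2 and flag tag, ratio per well normalized to DMSO and background controls.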

[2] = target: T1, SMYD3; test: SMYD3 biochemical assay (SPA, 3H-SAM methylation of MEKK2 protein substrate); details: read-out: SMYD3 Biochem IC50*
Procedure, shortened: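 Enzyme: untagged full-length human SMYD3 from E. coli; substrate GST-tagged MEKK2 from insect cells. Buffer 25 mM Tris-Cl pH 8.0, 1 mM TCEP, 0.005% BSG/Tween 20. 30 min compound–enzyme preincubation at RT; 3H-SAM/MEKK2 start; stop with cold SAM (100 uM final); SPA readout in cpm.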

T1 sequence (Q9H7B4 whole entry): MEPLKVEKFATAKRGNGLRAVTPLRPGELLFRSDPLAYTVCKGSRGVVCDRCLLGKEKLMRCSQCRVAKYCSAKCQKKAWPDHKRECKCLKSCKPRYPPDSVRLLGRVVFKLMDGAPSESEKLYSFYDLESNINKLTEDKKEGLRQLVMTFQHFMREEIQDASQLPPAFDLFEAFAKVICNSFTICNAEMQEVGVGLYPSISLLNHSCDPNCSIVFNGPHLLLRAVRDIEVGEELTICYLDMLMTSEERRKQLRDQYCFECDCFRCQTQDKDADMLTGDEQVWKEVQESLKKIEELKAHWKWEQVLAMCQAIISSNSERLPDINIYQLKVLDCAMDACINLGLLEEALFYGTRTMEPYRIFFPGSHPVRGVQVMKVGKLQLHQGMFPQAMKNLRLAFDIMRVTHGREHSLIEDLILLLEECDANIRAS

Compound | IC50 [1] [nM] | IC50 [2] [nM]
O=C(N[C@H]1C[C@H]2CC[C@@H](C1)N2S(=O)(=O)C[C@@H]1CCCN1)c1cc(C2CC2)on1 [compound 930, 5-cyclopropyl-N-((1R,3S,5S)-8-((((S)-pyrrolidin-2-yl)methyl)sulfonyl)-8-azabicyclo[3.2.1]octan-3-yl)isoxazole-3-carboxamide] | 351 | 37.1
C[C@H](N)c1ccc(S(=O)(=O)N2[C@@H]3CC[C@H]2C[C@@H](NC(=O)c2cc(C4CC4)on2)C3)cc1 [compound 931, N-((1R,3S,5S)-8-((4-((S)-1-aminoethyl)phenyl)sulfonyl)-8-azabicyclo[3.2.1]octan-3-yl)-5-cyclopropylisoxazole-3-carboxamide] | 526 | 37.2
C[C@H]1C[C@@H](NC(=O)c2cc(C3CC3)on2)CCN1S(=O)(=O)N1C[C@H]2CC[C@@H](C1)[C@@H]2N [compound 932, N-((2S,4S)-1-(((1R,5S,8R)-8-amino-3-azabicyclo[3.2.1]octan-3-yl)sulfonyl)-2-methylpiperidin-4-yl)-5-cyclopropylisoxazole-3-carboxamide] | 351 | 38.7
CN1CC2CC(C1)N2S(=O)(=O)N1[C@@H]2CC[C@H]1C[C@@H](NC(=O)c1cc(C3CC3)on1)C2 [compound 933, 5-cyclopropyl-N-((1R,3r,5S)-8-((3-methyl-3,6-diazabicyclo[3.1.1]heptan-6-yl)sulfonyl)-8-azabicyclo[3.2.1]octan-3-yl)isoxazole-3-carboxamide] | 91.9 | 42.4
C[C@@H](N)c1ccc(S(=O)(=O)N2[C@@H]3CC[C@H]2C[C@@H](NC(=O)c2cc(C4CC4)on2)C3)cc1 [compound 934, N-((1R,3R,5S)-8-((4-((R)-1-aminoethyl)phenyl)sulfonyl)-8-azabicyclo[3.2.1]octan-3-yl)-5-cyclopropylisoxazole-3-carboxamide] | 494 | 42.4
C[C@H]1C[C@@H](NC(=O)c2cc(C3CC3)on2)CCN1S(=O)(=O)N1CCC(N(C)CCN2CCOCC2)CC1 [compound 935, 5-cyclopropyl-N-((2S,4S)-2-methyl-1-((4-(methyl(2-morpholinoethyl)amino)piperidin-1-yl)sulfonyl)piperidin-4-yl)isoxazole-3-carboxamide] | 414 | 43
CN(CCCN1CCOCC1)C1CCN(S(=O)(=O)N2[C@@H]3CC[C@H]2C[C@@H](NC(=O)c2cc(C4CC4)on2)C3)CC1 [compound 936, 5-cyclopropyl-N-((1R,3r,5S)-8-((4-(methyl(3-morpholinopropyl)amino)piperidin-1-yl)sulfonyl)-8-azabicyclo[3.2.1]octan-3-yl)isoxazole-3-carboxamide] | 623 | 43.8
CC[C@@H]1CNCCN1S(=O)(=O)N1CC[C@H](NC(=O)c2cc(C3CC3)on2)C[C@@H]1C [compound 937, 5-cyclopropyl-N-((2S,4S)-1-(((R)-2-ethylpiperazin-1-yl)sulfonyl)-2-methylpiperidin-4-yl)isoxazole-3-carboxamide] | 484 | 43.9
N#Cc1ccc(CNC2CCN(S(=O)(=O)N3[C@@H]4CC[C@H]3C[C@@H](NC(=O)c3cc(C5CC5)on3)C4)CC2)cc1 [compound 938, N-((1R,3r,5S)-8-((4-((4-cyanobenzyl)amino)piperidin-1-yl)sulfonyl)-8-azabicyclo[3.2.1]octan-3-yl)-5-cyclopropylisoxazole-3-carboxamide] | 508 | 44.1
O=C(N[C@H]1C[C@H]2CC[C@@H](C1)N2S(=O)(=O)N1CCNCC1c1ccccc1)c1cc(C2CC2)on1 (stereo partly drawn) [compound 939, 5-cyclopropyl-N-((1R,3r,5S)-8-((2-phenylpiperazin-1-yl)sulfonyl)-8-azabicyclo[3.2.1]octan-3-yl)isoxazole-3-carboxamide] | 361 | 44.7
CC1CN(S(=O)(=O)N2[C@@H]3CC[C@H]2C[C@@H](NC(=O)c2cc(C4CC4)on2)C3)C(C)CN1C (stereo partly drawn) [compound 941, 5-cyclopropyl-N-((1R,3r,5S)-8-((2,4,5-trimethylpiperazin-1-yl)sulfonyl)-8-azabicyclo[3.2.1]octan-3-yl)isoxazole-3-carboxamide] | 341 | 47.9
O=C(N[C@H]1C[C@H]2CC[C@@H](C1)N2S(=O)(=O)NC1CCN[C@H](Cc2ccccc2)C1)c1cc(C2CC2)on1 (stereo partly drawn) [compound 942, N-((1R,3R,5S)-8-(N-((2R)-2-benzylpiperidin-4-yl)sulfamoyl)-8-azabicyclo[3.2.1]octan-3-yl)-5-cyclopropylisoxazole-3-carboxamide] | 659 | 48.1
C[C@H](NC1CCN(S(=O)(=O)N2[C@@H]3CC[C@H]2C[C@@H](NC(=O)c2cc(C4CC4)on2)C3)CC1)c1ccc(F)cc1 [compound 943, 5-cyclopropyl-N-((1R,3S,5S)-8-((4-(((S)-1-(4-fluorophenyl)ethyl)amino)piperidin-1-yl)sulfonyl)-8-azabicyclo[3.2.1]octan-3-yl)isoxazole-3-carboxamide] | 602 | 48.1
C[C@@H](NC1CCN(S(=O)(=O)N2[C@@H]3CC[C@H]2C[C@@H](NC(=O)c2cc(C4CC4)on2)C3)CC1)c1ccc(F)cc1 [compound 944, 5-cyclopropyl-N-((1R,3R,5S)-8-((4-(((R)-1-(4-fluorophenyl)ethyl)amino)piperidin-1-yl)sulfonyl)-8-azabicyclo[3.2.1]octan-3-yl)isoxazole-3-carboxamide] | 683 | 48.9
O=C(N[C@H]1C[C@H]2CC[C@@H](C1)N2S(=O)(=O)N(Cc1ccccc1)C1CCNCC1)c1cc(C2CC2)on1 [compound 945, N-((1R,3r,5S)-8-(N-benzyl-N-(piperidin-4-yl)sulfamoyl)-8-azabicyclo[3.2.1]octan-3-yl)-5-cyclopropylisoxazole-3-carboxamide] | 223 | 50.6
O=C(N[C@H]1C[C@H]2CC[C@@H](C1)N2S(=O)(=O)c1ccc(CNCCO)cc1)c1cc(C2CC2)on1 [compound 946, 5-cyclopropyl-N-((1R,3r,5S)-8-((4-(((2-hydroxyethyl)amino)methyl)phenyl)sulfonyl)-8-azabicyclo[3.2.1]octan-3-yl)isoxazole-3-carboxamide] | 332 | 51
O=C(N[C@H]1C[C@H]2CC[C@@H](C1)N2S(=O)(=O)N1CCC(NCCN2CCOCC2)CC1)c1cc(C2CC2)on1 [compound 947, 5-cyclopropyl-N-((1R,3r,5S)-8-((4-((2-morpholinoethyl)amino)piperidin-1-yl)sulfonyl)-8-azabicyclo[3.2.1]octan-3-yl)isoxazole-3-carboxamide] | 338 | 52.3
O=C(N[C@H]1C[C@H]2CC[C@@H](C1)N2S(=O)(=O)NC1CCN(Cc2ccccc2)CC1)c1cc(C2CC2)on1 [compound 948, N-((1R,3r,5S)-8-(N-(1-benzylpiperidin-4-yl)sulfamoyl)-8-azabicyclo[3.2.1]octan-3-yl)-5-cyclopropylisoxazole-3-carboxamide] | 411 | 52.4
O=C(N[C@H]1CCN(S(=O)(=O)NC2CCNCC2)[C@@H](Cc2ccccc2)C1)c1cc(C2CC2)on1 [compound 949, N-((2S,4S)-2-benzyl-1-(N-(piperidin-4-yl)sulfamoyl)piperidin-4-yl)-5-cyclopropylisoxazole-3-carboxamide] | 1510 | 52.7
CC1CN(C)CCN1S(=O)(=O)N1[C@@H]2CC[C@H]1C[C@@H](NC(=O)c1cc(C3CC3)on1)C2 (stereo partly drawn) [compound 950, 5-cyclopropyl-N-((1R,3r,5S)-8-((2,4-dimethylpiperazin-1-yl)sulfonyl)-8-azabicyclo[3.2.1]octan-3-yl)isoxazole-3-carboxamide] | 390 | 52.9
CN(C1CCCNC1)S(=O)(=O)N1[C@@H]2CC[C@H]1C[C@@H](NC(=O)c1cc(C3CC3)on1)C2 (stereo partly drawn) [compound 951, 5-cyclopropyl-N-((1R,3r,5S)-8-(N-methyl-N-(piperidin-3-yl)sulfamoyl)-8-azabicyclo[3.2.1]octan-3-yl)isoxazole-3-carboxamide] | 395 | 54.1
CN1CCC[C@H](S(=O)(=O)N2[C@@H]3CC[C@H]2C[C@@H](NC(=O)c2cc(C4CC4)on2)C3)C1 [compound 952, 5-cyclopropyl-N-((1R,3S,5S)-8-(((S)-1-methylpiperidin-3-yl)sulfonyl)-8-azabicyclo[3.2.1]octan-3-yl)isoxazole-3-carboxamide] | 281 | 56.2
O=C(N[C@H]1C[C@H]2CC[C@@H](C1)N2S(=O)(=O)c1ccc(CN2CCCC2)cc1)c1cc(C2CC2)on1 [compound 953, 5-cyclopropyl-N-((1R,3r,5S)-8-((4-(pyrrolidin-1-ylmethyl)phenyl)sulfonyl)-8-azabicyclo[3.2.1]octan-3-yl)isoxazole-3-carboxamide] | 585 | 57
CC[C@H]1C[C@@H](NC(=O)c2cc(C3CC3)on2)CCN1S(=O)(=O)CC1CCN(C)CC1 [compound 954, 5-cyclopropyl-N-((2S,4S)-2-ethyl-1-(((1-methylpiperidin-4-yl)methyl)sulfonyl)piperidin-4-yl)isoxazole-3-carboxamide] | 583 | 57.9
COCCN1C2CCC1CN(S(=O)(=O)N1[C@@H]3CC[C@H]1C[C@@H](NC(=O)c1cc(C4CC4)on1)C3)C2 [compound 955, 5-cyclopropyl-N-((1R,3r,5S)-8-((8-(2-methoxyethyl)-3,8-diazabicyclo[3.2.1]octan-3-yl)sulfonyl)-8-azabicyclo[3.2.1]octan-3-yl)isoxazole-3-carboxamide] | 373 | 59.2
